US11046701B2, “Salt of cetagliptin, preparation method thereof, pharmaceutical composition, and use thereof” (CGENETECH (SUZHOU, CHINA) CO., LTD., priority 2018, dated 2021)
Several values for one entry are separate records, joined by “and”; a condition that tells them apart may be missing. Identical values can stand only once. Like-named read-outs stand apart in the source and are kept apart here.

Legend:
DIO mice [1] = assay: Long-term administration on DIO mice: serum metabolic parameters (NEFA, TCHO, TG, insulin); format: in vivo, C57BL16 mice; conditions: end of long-term administration; for Serum NEFA / Serum TCHO / Serum TG / Serum insulin: fasted overnight
Text: Experimental animals: […] Table 18 was a total data table of the metabolic parameters.

[2] = PK/PD experiment of ICR mice: plasma concentration; format: in vivo, CD-1 (ICR) mice; conditions: CD-1 (ICR), mouse; for AUC: read-out: Drug exposure (AUCeff0-3 h)
Experimental: (§1) Experimental animals: CD-1 (ICR) mice aged for 4 weeks and weighed for about 18-22 g.
(§2) Grouping and administration scheme: the mice were fed adaptively, randomly grouped according to the weight on the day before experiment, and fasted overnight. […] After the experimental grouping, the group provided separately for detecting the initial basic value of DPPIV was carried out blood sampling, and other animals were intragastrically administrated with the drug at an administration volume of 10 mL/kg, the blood was sampled after the administration, and all other animals were stimulated with glucose administration; the blood was sampled at 20 min, 40 min, 60 min and 120 min after the glucose administration, respectively, and the plasma concentration and the DPPIV activity were detected by using plasma.
Research on pharmacodynamics-plasma concentration correlation: blood samples were collected at time points of 1 h, 1.33 h, 1.67 h, 2 h and 3 h after administration, and the plasma concentration was measured. The drug exposure value (AUCeff0-3h) of the DPPIV-P1 increased with the increase of dose, which was 16.09 ng·h/mL, 52.65 ng·h/mL, 162.3 ng·h/mL and 542.28 ng·h/mL, respectively.

serum DPPIV [3] = molecular target: T1, serum DPPIV (Mus musculus, UniProt P28843); assay: PK/PD experiment of ICR mice: activity of serum DPPIV; format: in vivo, CD-1 (ICR) mice; design: the plasma concentration and the DPPIV activity were detected by using plasma; from tissue; host or cells: blood plasma/serum of CD-1 (ICR) mice after oral dosing; conditions: ICR mice, 0.1, 0.3, 1 and 3 mg/kg intragastric (FIG. 28)
T1 sequence (P28843 38-760 limits assumed): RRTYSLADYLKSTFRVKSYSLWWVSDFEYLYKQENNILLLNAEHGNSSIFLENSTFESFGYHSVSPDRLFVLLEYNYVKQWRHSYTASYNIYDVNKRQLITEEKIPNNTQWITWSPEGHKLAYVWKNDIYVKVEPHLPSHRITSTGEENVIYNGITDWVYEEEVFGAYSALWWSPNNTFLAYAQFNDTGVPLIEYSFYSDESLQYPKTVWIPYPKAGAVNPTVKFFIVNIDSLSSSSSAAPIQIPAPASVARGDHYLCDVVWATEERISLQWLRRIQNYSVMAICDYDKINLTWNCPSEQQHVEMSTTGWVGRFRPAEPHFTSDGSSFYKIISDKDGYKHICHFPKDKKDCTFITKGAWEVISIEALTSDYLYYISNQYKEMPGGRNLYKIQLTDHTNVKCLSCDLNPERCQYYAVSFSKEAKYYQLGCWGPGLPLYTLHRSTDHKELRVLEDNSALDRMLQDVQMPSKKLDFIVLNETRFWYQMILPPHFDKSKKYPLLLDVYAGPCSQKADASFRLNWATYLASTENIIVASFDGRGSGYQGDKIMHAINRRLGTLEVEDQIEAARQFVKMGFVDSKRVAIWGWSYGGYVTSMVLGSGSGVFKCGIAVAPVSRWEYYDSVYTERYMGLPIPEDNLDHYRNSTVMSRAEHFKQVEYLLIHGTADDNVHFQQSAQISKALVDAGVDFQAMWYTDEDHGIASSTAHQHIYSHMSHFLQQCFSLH
Experimental: as §1, §2

[4] = Weight of ICR mice of each group; format: in vivo, CD-1 (ICR) mice; conditions: individual animals
Experimental: as §1, §2

serum DPPIV [5] = molecular target: T1, serum DPPIV; assay: Long-term administration on DIO mice: inhibition of serum DPPIV; format: in vivo, C57BL16 mice; design: from tissue; host or cells: serum of diet-induced obese C57BL mice after 28 days of oral dosing; conditions: after long-term administration
Text: Table 18 was a total data table of the metabolic parameters.

[6] = mouse, in vivo, po
Experimental: (§3) A solution with a certain concentration was prepared from the crystal form B of the phosphate, and the administration volume was 10 mL/kg.
(§4) Experimental animals: C57BL16 mice aged for 5 weeks and weighed for about 13-16 g.
(§5) Grouping and administration scheme: the mice were fed adaptively and divided into a normal control group and a model group which were fed with high-fat feed (Research diets, D 12492). When the fasting blood glucose of the mice was greater than or equal to 7 mM, it was considered that the mice had become DIO mice. The DIO mice could be selected for the hypoglycemic effect test. The DIO mice were stratified and randomly grouped according to the blood glucose and the weight. […] The weight and the fasting blood glucose were measured weekly; the food amount, the remaining food amount and the food intake were recorded; the mice were fasted overnight at the end of administration, the blood was sampled, and the free fatty acid (NEFA), total cholesterol (TCHO), triglyceride (TG), insulin and DPPIV activity were measured by using serum.

[7] = Stability of phosphate crystal form B under storage conditions (XRPD, HPLC purity); format: physicochemical
Experimental: High performance liquid chromatography (HPLC): the high performance liquid chromatogram was acquired by Agilent 1260 HPLC.
The crystal form B of phosphate prepared in this example was put into a 1.5 mL small bottle and the small bottles was placed under different conditions: 40° C./75% RH or 25° C./60% RH for one week in an open state, or 80° C. for 24 h. The obtained samples were subjected to XRPD test and HPLC test, and the sealed samples placed at 5° C. were used as reference samples (Initial) for HPLC purity test. […] The weight gain at 25° C./80% RH is 6.5% compared to 0% RH.

DIO mice [8] = assay: Long-term administration on DIO mice: fasting blood glucose; format: in vivo; conditions: for inhibition rate of the rise of the blood glucose: end of experiment (28 days), vs model control group; for fasting blood glucose data after the drug was administrated for 28 days: individual animals
Experimental: as §3, §4, §5

With C[C@@H]1c2cnc(C(F)(F)F)n2CCN1C(=O)C[C@H](N)Cc1cc(F)c(F)cc1F [DPPIV-P1, (8R)-7-[(3R)-3-amino-1-oxo-4-(2,4,5-trifluorophenyl)butyl]-5,6,7,8-tetrahydro-8-methyl-3-(trifluoromethyl)imidazo[1,5-a]pyrazine] the “decrease of insulin compared with the model control group” value (DIO mice [1]; 0.3 mg/kg) was 28.3%, the “Serum NEFA” value (DIO mice [1]; 0.3 mg/kg) was 1.21 ± 0.07 mmol/L and the “Serum TCHO” value (DIO mice [1]; 0.3 mg/kg) was 5.01 ± 0.58 mmol/L. The “Serum TG” value (DIO mice [1]; 0.3 mg/kg) was 1.04 ± 0.13 mmol/L, the Serum insulin (DIO mice [1]; 0.3 mg/kg) was 3.2 ± 2.44 ng/mL and the “Serum NEFA” value (DIO mice [1]; 3 mg/kg) was 1.08 ± 0.14 mmol/L. For the same molecule, the “Serum TCHO” value (DIO mice [1]; 3 mg/kg) was 5.06 ± 0.65 mmol/L, the “Serum TG” value (DIO mice [1]; 3 mg/kg) was 0.94 ± 0.15 mmol/L and the Serum insulin (DIO mice [1]; 3 mg/kg) was 4.7 ± 3.55 ng/mL. The “decrease of total cholesterol (TCHO) compared with the model control group” value (DIO mice [1]; 30 mg/kg) was 18.4%, the “Serum NEFA” value (DIO mice [1]; 30 mg/kg) was 1.01 ± 0.11 mmol/L and the “Serum TCHO” value (DIO mice [1]; 30 mg/kg) was 4.36 ± 0.45 mmol/L. For the same molecule, the “Serum TG” value (DIO mice [1]; 30 mg/kg) was 0.83 ± 0.11 mmol/L, the Serum insulin (DIO mice [1]; 30 mg/kg) was 4.9 ± 4.04 ng/mL and the concentration at 1 h ([2]; oral dose 0.1 mg/kg) was 8.28 ± 0.96 ng/mL. For the same molecule, the concentration at 1.33 h ([2]; oral dose 0.1 mg/kg) was 6.51 ± 1.58 ng/mL, the concentration at 1.67 h ([2]; oral dose 0.1 mg/kg) was 6.46 ± 0.2 ng/mL and the concentration at 2 h ([2]; oral dose 0.1 mg/kg) was 5.73 ± 0.65 ng/mL. For the same molecule, the concentration at 3 h ([2]; oral dose 0.1 mg/kg) was 4.85 ± 0.25 ng/mL, the AUC ([2]; oral dose 0.1 mg/kg) was 16.1 ng·h/mL and the concentration at 1 h ([2]; oral dose 0.3 mg/kg) was 26.4 ± 6.47 ng/mL. The concentration at 1.33 h ([2]; oral dose 0.3 mg/kg) was 25 ± 3.42 ng/mL, the concentration at 1.67 h ([2]; oral dose 0.3 mg/kg) was 17.9 ± 2.43 ng/mL and the concentration at 2 h ([2]; oral dose 0.3 mg/kg) was 20.5 ± 0.32 ng/mL. For the same molecule, the concentration at 3 h ([2]; oral dose 0.3 mg/kg) was 14.2 ± 1.48 ng/mL, the AUC ([2]; oral dose 0.3 mg/kg) was 52.6 ng·h/mL and the concentration at 1 h ([2]; oral dose 1 mg/kg) was 72.8 ± 7.04 ng/mL. It also gave a concentration at 1.33 h ([2]; oral dose 1 mg/kg) of 71.9 ± 2.71 ng/mL, a concentration at 1.67 h ([2]; oral dose 1 mg/kg) of 75.2 ± 6.09 ng/mL and a concentration at 2 h ([2]; oral dose 1 mg/kg) of 57.9 ± 2.06 ng/mL. The concentration at 3 h ([2]; oral dose 1 mg/kg) was 52.2 ± 5.54 ng/mL, the AUC ([2]; oral dose 1 mg/kg) was 162 ng·h/mL and the concentration at 1 h ([2]; oral dose 3 mg/kg) was 231 ± 16.6 ng/mL. The concentration at 1.33 h ([2]; oral dose 3 mg/kg) was 292 ± 47.2 ng/mL, the concentration at 1.67 h ([2]; oral dose 3 mg/kg) was 242 ± 17.7 ng/mL and the concentration at 2 h ([2]; oral dose 3 mg/kg) was 201 ± 44.7 ng/mL. For the same molecule, the concentration at 3 h ([2]; oral dose 3 mg/kg) was 151 ± 26.4 ng/mL, the AUC ([2]; oral dose 3 mg/kg) was 542 ng·h/mL and the “influence on the activity of serum DPPIV” value (serum DPPIV [3]) was “good dose-effect relationship”. The weight ([4]; 0.1 mg/kg group, 0.1 mg/kg, in g (unit assumed)) was 22.0 and 24.5 and 24.7 and 25.1 and 26.3 and 26.9 and 24.6 and 23.4 and 24.4 and 25.0 and 23.0 and 24.8 and 24.9 and 26.2 and 24.2, the weight ([4]; 0.3 mg/kg group, 0.3 mg/kg) was 25.3 (2×) and 24.0 and 24.1 and 23.9 and 24.9 (2×) and 24.6 and 26.4 and 26.0 and 25.5 and 22.0 and 22.6 and 25.0 and 24.4 and the weight ([4]; 1 mg/kg group, 1 mg/kg) was 26.9 and 25.1 (2×) and 23.5 and 23.6 (2×) and 24.9 (2×) and 24.8 and 26.1 and 25.8 and 26.4 and 25.2 and 22.4 and 23.4. The weight ([4]; 3 mg/kg group, 3 mg/kg, in g (unit assumed)) was 25.0 and 24.8 and 23.0 and 25.4 and 21.7 and 27.3 and 22.3 and 22.4 and 25.7 and 24.0 and 23.3 and 24.1 and 25.2 and 27.2 and 24.5, the “inhibition effect on the serum DPPIV compared with sitagliptin phosphate” value (serum DPPIV [5]) was “obviously higher than that of sitagliptin phosphate” and the inhibition at 0.3 mg/kg (serum DPPIV [5]; mouse, 0.3 mg/kg, vs model control group, read-out: inhibition rate against DPPIV (serum)) was 47.1%. The inhibition at 3 mg/kg (serum DPPIV [5]; mouse, 3 mg/kg, vs model control group, read-out: inhibition rate against DPPIV (serum)) was 82.7%, the inhibition at 30 mg/kg (serum DPPIV [5]; mouse, 30 mg/kg, vs model control group, read-out: inhibition rate against DPPIV (serum)) was 95.3% and the “tolerance after long-term administration” value [6] was “good in tolerance and not easy to induce hypoglycemia”. For the same molecule, the Crystal form ([7]; 25° C./60% RH, one week) was “Phosphate crystal form B”, the “Purity (area %)” value ([7]; 25° C./60% RH, one week, open) was 99.65 area % and the Crystal form ([7]; 40° C./75% RH, one week) was “Phosphate crystal form B”. The “Purity (area %)” value ([7]; 40° C./75% RH, one week, open) was 99.64 area %, the Appearance ([7]; 80° C. for 24 h) was “changed from white solid into yellow solid” and the Crystal form ([7]; 80° C., 24 h) was “Phosphate crystal form B”. The “Purity (area %)” value ([7]; 80° C., 24 h) was 99.48 area %, the Crystal form ([7]; Initial) was “Phosphate crystal form B” and the “Purity (area %)” value ([7]; Initial (sealed reference sample placed at 5° C.)) was 99.78 area %. For the same molecule, the Fasting blood glucose (DIO mice [8]; 0.3 mg/kg daily intragastric, D 1) was 8.3 ± 1.1 mmol/L, the Fasting blood glucose (DIO mice [8]; 0.3 mg/kg daily intragastric, D 3) was 8.4 ± 0.9 mmol/L and the Fasting blood glucose (DIO mice [8]; 0.3 mg/kg daily intragastric, D 7) was 8.4 ± 1.0 mmol/L. The Fasting blood glucose (DIO mice [8]; 0.3 mg/kg daily intragastric, D 14) was 8.9 ± 1.1 mmol/L, the Fasting blood glucose (DIO mice [8]; 0.3 mg/kg daily intragastric, D 21) was 8.5 ± 1.0 mmol/L and the Fasting blood glucose (DIO mice [8]; 0.3 mg/kg daily intragastric, D 28) was 8.3 ± 0.8 mmol/L. The “inhibition rate of the rise of the blood glucose” value (from here on “inhibition rate”) (DIO mice [8]; 0.3 mg/kg) was 14.2%, the Fasting blood glucose (DIO mice [8]; 3 mg/kg daily intragastric, D 1) was 8.3 ± 1.1 mmol/L and the Fasting blood glucose (DIO mice [8]; 3 mg/kg daily intragastric, D 3) was 8.3 ± 0.9 mmol/L. It also gave a Fasting blood glucose (DIO mice [8]; 3 mg/kg daily intragastric, D 7) of 8.6 ± 2.2 mmol/L, a Fasting blood glucose (DIO mice [8]; 3 mg/kg daily intragastric, D 14) of 9.1 ± 1.6 mmol/L and a Fasting blood glucose (DIO mice [8]; 3 mg/kg daily intragastric, D 21) of 8.6 ± 1.0 mmol/L. For the same molecule, the Fasting blood glucose (DIO mice [8]; 3 mg/kg daily intragastric, D 28) was 8.7 ± 0.9 mmol/L, the “inhibition rate” value (DIO mice [8]; 3 mg/kg) was 9.9% and the Fasting blood glucose (DIO mice [8]; 30 mg/kg daily intragastric, D 1) was 8.3 ± 1.0 mmol/L. The Fasting blood glucose (DIO mice [8]; 30 mg/kg daily intragastric, D 3) was 7.8 ± 1.5 mmol/L, the Fasting blood glucose (DIO mice [8]; 30 mg/kg daily intragastric, D 7) was 7.9 ± 0.8 mmol/L and the Fasting blood glucose (DIO mice [8]; 30 mg/kg daily intragastric, D 14) was 7.7 ± 0.7 mmol/L. The Fasting blood glucose (DIO mice [8]; 30 mg/kg daily intragastric, D 21) was 8.1 ± 0.6 mmol/L, the Fasting blood glucose (DIO mice [8]; 30 mg/kg daily intragastric, D 28) was 7.9 ± 0.6 mmol/L and the “inhibition rate” value (DIO mice [8]; 30 mg/kg) was 18.5%. The “fasting blood glucose data after the drug was administrated for 28 days” value (from here on “fasting blood glucose data”) (DIO mice [8]; 0.3 mg/kg) was 10.3 and 8 (3×) and 7.3 (2×) and 8.8 and 8.7 and 8.3 and 8.6 and 7.9, the “fasting blood glucose data” value (DIO mice [8]; 3 mg/kg) was 9.2 and 7.8 (2×) and 9.8 and 8.9 and 9 and 7.3 and 9.7 and 8 and 8.3 and 10 and the “fasting blood glucose data” value (DIO mice [8]; 30 mg/kg, listed as DPPIV-PI) was 8.5 and 7.3 and 7.4 (3×) and 7.6 and 8.9 and 8.2 (2×) and 7.5 and 7.8.
